Test results from ChEMBL document CHEMBL1155433, “Benzimidazole Thumb Pocket I finger-loop inhibitors of HCV NS5B polymerase: improved drug-like properties through C-2 SAR in three sub-series” (Bioorg Med Chem Lett, 2010).

Tested on: Hepatitis C virus
Experiment: Antiviral activity against HCV1b in human Huh7 cells assessed as reduction of viral RNA replication after 72 hrs by luciferase reporter assay
Assay type: functional, organism-based, Hepacivirus hominis
Conditions: genotype 1b, Huh-7, 72 h

| EC50 [nM] | Structure (SMILES) |
| --- | --- |
| 1900 | O=C(N[C@@H](Cc1c[nH]c2ccc(O)cc12)c1cscn1)c1ccc2c(c1)nc(-c1ccccn1)n2C1CCCCC1 |
| 2400 | O=C(N[C@@H](Cc1c[nH]c2ccc(O)cc12)c1cscn1)c1ccc2c(c1)nc(-c1ccccc1)n2C1CCCCC1 |
| 2800 | O=C(N[C@@H](Cc1c[nH]c2ccc(O)cc12)c1cscn1)c1ccc2c(c1)nc(-c1cccs1)n2C1CCCCC1 |
| 3400 | O=C(N[C@@H](Cc1c[nH]c2ccc(O)cc12)c1cscn1)c1ccc2c(c1)nc(-c1ccco1)n2C1CCCCC1 |
| 2900 | O=C(N[C@@H](Cc1c[nH]c2ccc(O)cc12)c1cscn1)c1ccc2c(c1)nc(-c1ccsc1)n2C1CCCCC1 |

Tested on: not listed separately
Experiment: Cytotoxicity against human HuH7 cells
Assay type: cell-based, Huh-7
Conditions: read-out: TC50 (the source's name)

| Structure (SMILES) | CC50 [nM] |
| --- | --- |
| O=C(N[C@@H](Cc1c[nH]c2ccc(O)cc12)c1cscn1)c1ccc2c(c1)nc(-c1ccccn1)n2C1CCCCC1 | > 10000 |
| O=C(N[C@@H](Cc1c[nH]c2ccc(O)cc12)c1cscn1)c1ccc2c(c1)nc(-c1ccccc1)n2C1CCCCC1 | > 10000 |
| O=C(N[C@@H](Cc1c[nH]c2ccc(O)cc12)c1cscn1)c1ccc2c(c1)nc(-c1cccs1)n2C1CCCCC1 | > 10000 |
| O=C(N[C@@H](Cc1c[nH]c2ccc(O)cc12)c1cscn1)c1ccc2c(c1)nc(-c1ccco1)n2C1CCCCC1 | > 10000 |
| O=C(N[C@@H](Cc1c[nH]c2ccc(O)cc12)c1cscn1)c1ccc2c(c1)nc(-c1ccsc1)n2C1CCCCC1 | > 10000 |

Tested on: Hepatitis C virus
Experiment: Inhibition of HCV 1b NS5Bdelta21 polymerase assessed as [3H]UTP incorporated into the biotinylated primer after 90 mins by scintillation counting
Assay type: functional, Hepatitis C virus subtype 1b
Conditions: not given

| IC50 [nM] | Structure (SMILES) |
| --- | --- |
| 60 | Cn1cccc1-c1nc2cc(C(=O)N[C@@H](Cc3c[nH]c4ccc(O)cc34)C(=O)O)ccc2n1C1CCCCC1 |
| 230 | O=C(N[C@@H](Cc1c[nH]c2ccc(O)cc12)C(=O)O)c1ccc2c(c1)nc(-c1ccccc1)n2C1CCCCC1 |
| 80 | O=C(N[C@@H](Cc1c[nH]c2ccc(O)cc12)C(=O)O)c1ccc2c(c1)nc(-c1ccco1)n2C1CCCCC1 |
| 160 | O=C(N[C@@H](Cc1c[nH]c2ccc(O)cc12)C(=O)O)c1ccc2c(c1)nc(-c1ccsc1)n2C1CCCCC1 |
| 30 | O=C(N[C@@H](Cc1c[nH]c2ccc(O)cc12)C(=O)O)c1ccc2c(c1)nc(-c1ccoc1)n2C1CCCCC1 |
| 140 | O=C(N[C@@H](Cc1c[nH]c2ccc(O)cc12)C(=O)O)c1ccc2c(c1)nc(-c1ccccn1)n2C1CCCCC1 |

Further lines, the compound ahead of its results:

| Structure (SMILES) | IC50 [nM] |
| --- | --- |
| O=C(N[C@@H](Cc1c[nH]c2ccc(O)cc12)c1cscn1)c1ccc2c(c1)nc(-c1ccccn1)n2C1CCCCC1 | 690 |
| O=C(N[C@@H](Cc1c[nH]c2ccc(O)cc12)c1cscn1)c1ccc2c(c1)nc(-c1ccccc1)n2C1CCCCC1 | 1160 |
| O=C(N[C@@H](Cc1c[nH]c2ccc(O)cc12)C(=O)O)c1ccc2c(c1)nc(-c1cccs1)n2C1CCCCC1 | 80 |
| O=C(N[C@@H](Cc1c[nH]c2ccc(O)cc12)c1cscn1)c1ccc2c(c1)nc(-c1cccs1)n2C1CCCCC1 | 450 |
| O=C(N[C@@H](Cc1c[nH]c2ccc(O)cc12)c1cscn1)c1ccc2c(c1)nc(-c1ccco1)n2C1CCCCC1 | 270 |
| O=C(N[C@@H](Cc1c[nH]c2ccc(O)cc12)c1cscn1)c1ccc2c(c1)nc(-c1ccsc1)n2C1CCCCC1 | 520 |
